One data set in a line: Oral absorption in rats. Type of data set: in vivo. The conditions noted are these: data not shown. From the text: Therefore, any of the compounds, wherein R^12 represents an alkyl group or a hydrogen atom, can be used in the treatment of the above diseases.
The target of data set [1] is T1, integrin αvβ3 (vitronectin receptor purified from the human placenta) (Homo sapiens, UniProt P05106+P06756).
T1 construct: a vitronectin receptor (protein content: 118 μg/ml) purified from the human placenta; from tissue; host or cells: human placenta
Briefly: αvβ3 binding assay (vitronectin-vitronectin receptor binding assay). The conditions noted are these: vitronectin binding to human placenta vitronectin receptor; read-out: integrin αvβ3 antagonistic activity, IC50 value. The method, then: Integrin αvβ3 antagonistic activity was measured for the compounds according to the present invention in a vitronectin-vitronectin receptor binding assay system in accordance with the method of Kouns et al. (W. C. Kouns, D. Kirchhofer, P. Hadvary, A. Edenhofer, T. Weller, G. Pfenninger, H. R. Baumgartner, L. K. Jennings and B. Steiner, Blood, 80, 2539-2547 (1992)).
Specifically, a vitronectin receptor (protein content: 118 μg/ml) purified from the human placenta in accordance with the method of Pytela et al. (R. Pytela, M. D. Pierschbacher, S. Argraves, S. Suzuki, and E. Ruoslahti, Method in Enzymology, 144, 475-489 (1987)) was diluted 50 times with TBS (20 mM Tris-HCl, 150 mM NaCl, 1 mM CaCl2, 1 mM MgCl2, pH 7.4), and distributed and coated on wells (50 μl/well) of a plate (Maxisorp, Nunc, 96 well Immuno Plate). The plate was then allowed to stand at 4° C. for 1 day, washed twice with TBS (200 μl/well), and then subjected to blocking with TBS (150 μl/well) containing 1% bovine serum albumin (SIGMA) at 4° C. overnight. After washing twice with TBS (200 μl/well), 50 μl of vitronectin (CALBIOCHEM) adjusted to 0.2 μg/ml by the addition of TBS (TBS-Tween) containing 0.01% Tween-20 was mixed with 50 μl of each test compound adjusted to each concentration in wells, and a reaction was allowed to proceed at room temperature for 4 hr. After the completion of the reaction, the wells were washed five times with TBS-Tween. A solution prepared by diluting anti-vitronectin rabbit antiserum (CHEMICON) 500 times with TBS-Tween was added as a primary antibody in an amount of 50 μl/well, and a reaction was allowed to proceed at room temperature for 1.5 hr. After washing five times with 200 μl/well of TBS-Tween, a peroxidase (POD)-labeled anti-rabbit IgG antibody solution (CAPPEL) diluted 500 times with TBS-Tween was added as a secondary antibody in an amount of 50 μl/well, and a reaction was allowed to proceed at room temperature for 1.5 hr. After washing five times with TBS-Tween (200 μl/well), ABTS (2,2′-azino-bis(3-ethylbenzthiazoline-6-sulfonic acid), SIGMA) was adjusted to 1 mg/ml by the addition of a ten-fold diluted POD-buffer (ZYMED), and added in an amount of 50 μl/well, and a reaction was allowed to proceed for 5 to 10 min. A 0.1 M citric acid buffer (pH 4.3) containing 0.05% NaN3 was added in an amount of 50 μl/well to stop the reaction, followed by the measurement of the absorbance at 415 nm with a microplate reader (MTP 32, Corona Electric) (reference: 675 nm). The total binding was defined as the absorbance after a reaction using 50 μl of TBS-Tween instead of the test compound, and the non-specific binding (100% inhibition) was defined as the absorbance after a reaction using 50 μl of TBS-Tween containing 2×10^−3 M RGDS. The inhibition was calculated by the following equation: [formula]
IC50 was determined from a primary regression line of the logarithm of each concentration of the test compound and the logarithm of (100−inhibition)/inhibition.

The next data set has as its target GP IIb/IIIa (Homo sapiens, UniProt P05106+P08514). Briefly: GP IIb/IIIa antagonistic activity (method of Pharmacological Test 2 in WO 94/21599). The data set is classed as binding. As to the method:
(§1) GP IIb/IIIa Antagonistic Activity and Human Platelet Aggregation Inhibitory Activity
GP IIb/IIIa antagonistic activity was measured for the compounds according to the present invention. The measurement of the GP IIb/IIIa antagonistic activity was carried out according to the method described in Pharmacological Test 2 in WO 94/21599.

Data set [2] has as its system human platelet aggregation. Briefly: Human platelet aggregation inhibitory activity (method of Pharmacological Test 1 in WO 94/21599). The data set is classed as cell-based. The conditions noted are these: human platelets, read-out: inhibition of human platelet aggregation, IC5. value. The method, then: as §1
Human platelet aggregation inhibitory activity was measured for the compounds according to the present invention. The measurement of the human platelet aggregation activity was carried out according to the method described in Pharmacological Test 1 in WO 94/21599.

Data set [3] deals with human vascular smooth muscle cells adhering to immobilized human vitronectin. Briefly: Inhibitory activity against adhesion of human vascular smooth muscle cells to vitronectin. The data set is classed as cell-based. The conditions noted are these: 1.5 h; human vitronectin-coated plate, 90 min. As to the method:
Inhibitory Activity Against Adhesion of Human Vascular Smooth Muscle Cells to Vitronectin
The adhesion of human vascular smooth muscle cells =+to immobilized human vitronectin was measured in accordance with the method of Liaw et al. (Liaw L, Almeida M, Hart C E, Schwartz S M, and Giachelli C M, Circulation Research, 74 (2), 214-224 (1994)).
A Dulbecco's phosphate buffer (Dulbecco's PBS(−), Nissui Pharmaceutical Co., Ltd.) solution of human plasma-derived vitronectin (CALBIOCHEM) adjusted to a concentration of 4 μg/ml was first added to wells (50 μl/well) of a microplate (Maxisorp, Nunc), and a reaction for immobilization was allowed to proceed at 4° C. overnight. After washing twice with 150 μl of Dulbecco's phosphate buffer, a Dulbecco's phosphate buffer containing 10 mg/ml of bovine serum albumin (SIGMA) was added, followed by blocking at 37° C. for one hr. The assay plate was washed twice with 150 μl of Dulbecco's phosphate buffer.
Separately, human vascular smooth muscle cells cultivated at 37° C. under 5% carbon dioxide in a medium for vascular smooth muscle cells (Clonetics) were separated using a Dulbecco's phosphate buffer containing trypsin-EDTA (GIBCO BRL), washed with Dulbecco's phosphate buffer, and then suspended in a Dulbecco's modified Eagle's basal medium (Nissui Pharmaceutical Co., Ltd.) containing 0.1% bovine serum albumin to a concentration of 5×10^5/ml.
Next, 50 μl of a Dulbecco's modified Eagle's basal medium containing 10 mg/ml of bovine serum albumin with a medicament added thereto was added to the wells of the human vitronectin-coated assay microplate, followed by pre-cultivation under 5% carbon dioxide at 37° C. for 10 min. Thereafter, 50 μl of the medium with human vascular smooth muscle cells suspended therein was added thereto, and the plate was thoroughly stirred. A reaction was allowed to proceed under 5% carbon dioxide at 37° C. for 90 min. The reaction solution containing non-adherent cells were then removed, followed by washing three times with Dulbecco's phosphate buffer. For the adhered cells, 100 μl of a Dulbecco's phosphate buffer containing 4% paraformaldehyde (Wako Pure Chemical Industries, Ltd.) was added, and immobilization was allowed to proceed at room temperature for 10 min. Next, 100 μl of a Dulbecco's phosphate buffer containing 0.5% Toluidine Blue (Croma) and 4% paraformaldehyde was added, and staining was allowed to proceed at room temperature for 5 min, followed by thorough washing with distilled water. The inside of the wells was then air-dried, and a 1% aqueous sodium dodecylsulfate solution was then added to perform cytolysis. The absorbance of the microplate thus obtained was measured at 595 nm. […] The inhibition was calculated by the following equation. IC50 was determined from a primary regression line of the logarithm of each concentration of the test compound and the logarithm of (100−inhibition)/inhibition. [formula]

SMILES strings stand for the structures.

T1 sequence (P06756 31-889 limits assumed): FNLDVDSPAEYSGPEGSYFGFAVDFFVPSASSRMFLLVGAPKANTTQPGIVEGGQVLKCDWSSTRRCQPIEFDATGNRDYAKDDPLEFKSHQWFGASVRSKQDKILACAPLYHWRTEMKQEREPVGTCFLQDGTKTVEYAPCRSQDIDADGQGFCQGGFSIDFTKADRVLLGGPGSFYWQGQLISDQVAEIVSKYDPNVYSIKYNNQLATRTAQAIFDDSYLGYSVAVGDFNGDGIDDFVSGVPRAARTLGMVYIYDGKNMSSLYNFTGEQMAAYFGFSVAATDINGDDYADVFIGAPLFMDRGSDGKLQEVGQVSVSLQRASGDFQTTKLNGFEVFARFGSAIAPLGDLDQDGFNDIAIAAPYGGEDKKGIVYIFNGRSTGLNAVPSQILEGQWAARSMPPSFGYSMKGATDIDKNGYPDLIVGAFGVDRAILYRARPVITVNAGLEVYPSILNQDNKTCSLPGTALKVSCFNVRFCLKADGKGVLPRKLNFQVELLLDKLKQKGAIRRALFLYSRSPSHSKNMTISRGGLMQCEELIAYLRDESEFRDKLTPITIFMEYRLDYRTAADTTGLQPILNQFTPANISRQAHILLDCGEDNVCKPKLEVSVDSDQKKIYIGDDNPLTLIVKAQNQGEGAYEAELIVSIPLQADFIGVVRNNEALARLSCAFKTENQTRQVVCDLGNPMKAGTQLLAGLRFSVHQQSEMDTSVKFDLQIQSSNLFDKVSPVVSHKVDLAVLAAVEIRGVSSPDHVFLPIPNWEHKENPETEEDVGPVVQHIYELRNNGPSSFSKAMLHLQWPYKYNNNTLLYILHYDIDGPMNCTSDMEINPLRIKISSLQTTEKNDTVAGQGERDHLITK
T1 sequence (P06756 891-1048 limits assumed): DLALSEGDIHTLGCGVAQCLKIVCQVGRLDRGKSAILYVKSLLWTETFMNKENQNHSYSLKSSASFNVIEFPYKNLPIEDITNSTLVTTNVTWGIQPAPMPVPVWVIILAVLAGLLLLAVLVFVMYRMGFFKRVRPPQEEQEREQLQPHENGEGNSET
T1 sequence (P05106 27-788): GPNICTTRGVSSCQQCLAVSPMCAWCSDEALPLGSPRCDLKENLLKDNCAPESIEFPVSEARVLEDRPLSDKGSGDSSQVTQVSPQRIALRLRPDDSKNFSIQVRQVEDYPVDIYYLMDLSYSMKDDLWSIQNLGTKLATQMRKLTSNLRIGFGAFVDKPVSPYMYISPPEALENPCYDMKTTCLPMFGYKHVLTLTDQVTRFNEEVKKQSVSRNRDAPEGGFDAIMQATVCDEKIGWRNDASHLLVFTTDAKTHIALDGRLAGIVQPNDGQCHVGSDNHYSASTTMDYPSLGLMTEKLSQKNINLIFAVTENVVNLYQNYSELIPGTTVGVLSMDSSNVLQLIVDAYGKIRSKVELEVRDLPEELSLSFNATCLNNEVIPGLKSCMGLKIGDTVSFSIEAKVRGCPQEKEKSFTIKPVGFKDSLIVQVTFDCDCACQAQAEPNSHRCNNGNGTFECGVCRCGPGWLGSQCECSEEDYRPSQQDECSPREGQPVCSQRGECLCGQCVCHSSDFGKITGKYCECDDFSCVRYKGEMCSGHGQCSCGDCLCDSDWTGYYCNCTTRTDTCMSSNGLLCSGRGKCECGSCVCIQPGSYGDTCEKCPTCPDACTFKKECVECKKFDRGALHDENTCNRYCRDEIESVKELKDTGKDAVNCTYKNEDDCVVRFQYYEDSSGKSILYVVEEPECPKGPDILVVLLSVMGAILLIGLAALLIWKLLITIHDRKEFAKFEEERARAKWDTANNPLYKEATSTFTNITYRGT
Chain of GP IIb/IIIa (P08514 32-887 limits assumed): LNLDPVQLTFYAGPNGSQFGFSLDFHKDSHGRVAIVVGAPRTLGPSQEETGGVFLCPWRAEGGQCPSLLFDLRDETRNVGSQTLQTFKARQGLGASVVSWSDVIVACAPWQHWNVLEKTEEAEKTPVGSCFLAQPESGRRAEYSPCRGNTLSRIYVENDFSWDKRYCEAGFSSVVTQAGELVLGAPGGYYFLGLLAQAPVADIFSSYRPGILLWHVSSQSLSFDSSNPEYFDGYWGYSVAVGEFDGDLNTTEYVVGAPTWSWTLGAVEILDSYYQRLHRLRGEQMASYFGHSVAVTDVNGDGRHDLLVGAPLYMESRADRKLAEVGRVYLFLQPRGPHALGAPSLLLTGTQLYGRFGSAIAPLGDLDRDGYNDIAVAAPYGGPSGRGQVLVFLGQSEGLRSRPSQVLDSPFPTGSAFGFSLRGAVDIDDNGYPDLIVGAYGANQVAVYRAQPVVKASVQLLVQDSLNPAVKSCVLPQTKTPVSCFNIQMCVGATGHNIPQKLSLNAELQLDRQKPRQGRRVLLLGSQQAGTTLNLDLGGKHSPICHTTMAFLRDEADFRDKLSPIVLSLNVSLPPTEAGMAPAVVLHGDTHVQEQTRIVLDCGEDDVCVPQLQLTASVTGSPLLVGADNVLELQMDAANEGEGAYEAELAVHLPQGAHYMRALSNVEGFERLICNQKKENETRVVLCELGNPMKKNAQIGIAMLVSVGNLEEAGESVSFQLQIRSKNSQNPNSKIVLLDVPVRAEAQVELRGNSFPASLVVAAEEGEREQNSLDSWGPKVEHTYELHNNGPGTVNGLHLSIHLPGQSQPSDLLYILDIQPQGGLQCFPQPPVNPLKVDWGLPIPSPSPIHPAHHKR
Chain of GP IIb/IIIa (P08514 891-1039 limits assumed): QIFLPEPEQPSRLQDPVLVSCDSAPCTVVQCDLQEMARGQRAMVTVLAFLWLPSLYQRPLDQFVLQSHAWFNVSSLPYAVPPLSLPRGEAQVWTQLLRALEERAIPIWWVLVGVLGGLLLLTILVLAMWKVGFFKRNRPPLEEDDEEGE
Chain of GP IIb/IIIa (P05106 27-788): as the sequence (P05106 27-788) above

As to `O=C(NC[C@H](NS(=O)(=O)c1ccccc1)C(=O)O)c1ccc(N2CCC(Nc3ncccn3)CC2)c(Cl)c1` [Example 59, (2S)-Benzenesulfonylamino-3-[3-chloro-4-{4-(pyrimidin-2-ylamino)piperidin-1-yl}benzoylamino]-propionic acid], the oral absorption result in the data set “Oral absorption in rats” is “had oral absorption”.
Turning to `O=C(NC[C@H](NS(=O)(=O)c1ccccc1)C(=O)O)c1ccc(N2CCC(NC3=NCCCN3)CC2)c(Cl)c1` [Example 60, (2S)-Benzenesulfonylamino-3-[3-chloro-4-{4-(1,4,5,6-tetrahydropyrimidin-2-ylamino)piperidin-1-yl}-benzoylamino]propionic acid], the IC50 is not above 1 nM in data set [1], not above 1 nM at GP IIb/IIIa, not above 90 nM in data set [2] and not above 70 nM in data set [3].

(Values after patent US6420558B1, “Aminopiperidine derivates as integrin αvβ3 antagonists” (Meiji Seika Kaisha, Ltd., priority 1998, dated 2002).)
